From ChEMBL document CHEMBL3774388, “Synthesis and anti-cancer activity evaluation of 5-(2-carboxyethenyl)-isatin derivatives” (Eur J Med Chem, 2016)
pIC50: −log10 of the molar value. Values belong to the compound of their own block, whether it stands above or below them. The source made the active and inactive calls. The rule behind the calls is not given here.

Legend:
Jurkat [1] = assay: Anticancer activity against human Jurkat cells after 48 hrs by MTT assay; format: functional, cell-based
Jurkat [2] = assay: Induction of apoptosis in human Jurkat cells assessed as necrotic cells at 30 nM after 12 hrs by Annexin-V-FITC/PI-staining based flow cytometric analysis (reference value: 0.8%); format: functional
Jurkat [3] = assay: Induction of apoptosis in human Jurkat cells assessed as late apoptotic cells at 30 nM after 12 hrs by Annexin-V-FITC/PI-staining based flow cytometric analysis relative to control; format: functional
Jurkat [4] = assay: Induction of apoptosis in human Jurkat cells assessed as early apoptotic cells at 30 nM after 12 hrs by Annexin-V-FITC/PI-staining based flow cytometric analysis relative to control; format: functional
Jurkat [5] = assay: Induction of apoptosis in human Jurkat cells assessed as viable cells at 30 nM after 12 hrs by Annexin-V-FITC/PI-staining based flow cytometric analysis (reference value: 99.1%); format: functional; settings: read-out: Activity
Jurkat [6] = assay: Induction of apoptosis in human Jurkat cells assessed as necrotic cells at 10 nM after 12 hrs by Annexin-V-FITC/PI-staining based flow cytometric analysis (reference value: 0.8%); format: functional
Jurkat [7] = assay: Induction of apoptosis in human Jurkat cells assessed as late apoptotic cells at 10 nM after 12 hrs by Annexin-V-FITC/PI-staining based flow cytometric analysis relative to control; format: functional
Jurkat [8] = assay: Induction of apoptosis in human Jurkat cells assessed as early apoptotic cells at 10 nM after 12 hrs by Annexin-V-FITC/PI-staining based flow cytometric analysis relative to control; format: functional
Jurkat [9] = assay: Induction of apoptosis in human Jurkat cells assessed as viable cells at 10 nM after 12 hrs by Annexin-V-FITC/PI-staining based flow cytometric analysis (reference value: 99.1%); format: functional; settings: read-out: Activity
Jurkat [10] = assay: Induction of apoptosis in human Jurkat cells assessed as increase in cells with reduction in mitochondrial membrane potential at 30 nM after 48 hrs by TMRM-staining based flow cytometric analysis ( Rvb = 7.8%); format: functional; set-up: scale not given: the % may be the effect or the level left
Jurkat [11] = assay: Induction of apoptosis in human Jurkat cells assessed as increase in cells with reduction in mitochondrial membrane potential at 30 nM after 24 hrs by TMRM-staining based flow cytometric analysis ( Rvb = 7.8%); format: functional; set-up: scale not given: the % may be the effect or the level left
Jurkat [12] = assay: Induction of apoptosis in human Jurkat cells using Z-DEVD-R110 as substrate assessed as caspase3 activation at 30 nM incubated for 18 hrs measured at 48 hrs by fluorescence analysis; format: functional, cell-based
[13] = Anticancer activity against human SKOV3 cells after 48 hrs by MTT assay; format: functional, cell-based; settings: SK-OV-3, 48 h
[14] = Anticancer activity against human DU145 cells after 48 hrs by MTT assay; format: functional, cell-based; settings: DU-145, 48 h
A549 = assay: Anticancer activity against human A549 cells after 48 hrs by MTT assay; format: functional, cell-based; settings: A549, 48 h
[15] = Anticancer activity against human BT549 cells after 48 hrs by MTT assay; format: functional, cell-based; settings: BT-549, 48 h
[16] = Anticancer activity against human BT474 cells after 48 hrs by MTT assay; format: functional, cell-based; settings: BT-474, 48 h
MCF7 = assay: Anticancer activity against human MCF7 cells after 48 hrs by MTT assay; format: functional, cell-based; settings: MCF7, 48 h
[17] = Anticancer activity against human HCT116 cells after 48 hrs by MTT assay; format: functional, cell-based; settings: HCT-116, 48 h
HeLa = assay: Anticancer activity against human HeLa cells after 48 hrs by MTT assay; format: functional, cell-based
A498 = assay: Anticancer activity against human A498 cells after 48 hrs by MTT assay; format: functional, cell-based; settings: A498, 48 h
NCI-H1299 = assay: Anticancer activity against human NCI-H1299 cells after 48 hrs by MTT assay; format: functional, cell-based; settings: NCI-H1299, 48 h
HUVEC = assay: Cytotoxicity against HUVEC cells after 48 hrs by MTT assay; format: cell-based; settings: Homo sapiens
HEK293 = assay: Cytotoxicity against HEK293 cells after 48 hrs by MTT assay; format: cell-based; settings: Homo sapiens, HEK293, 48 h
Jurkat [18] = assay: Induction of apoptosis in human Jurkat cells at 10 to 30 nM by Annexin-V-FITC/PI-staining based flow cytometric analysis; format: functional, cell-based; settings: TDE = time-dependent effect
Jurkat [19] = assay: Induction of apoptosis in human Jurkat cells assessed as induction of cell shrinkage and blebbing at 10 and 30 nM incubated for 12 hrs by phase contrast microscopy; format: functional, cell-based

pIC50 (Jurkat [1]): 7.10
Structure (SMILES): COC(=O)/C=C/c1ccc2c(c1)C(=O)C(=O)N2Cc1ccc(C#N)cc1

pIC50 (Jurkat [1]): 6.19
Structure (SMILES): COC(=O)/C=C/c1ccc2c(c1)C(=O)C(=O)N2Cc1ccc2ccccc2c1

pIC50 (Jurkat [1]): 7.52
Structure (SMILES): COC(=O)/C=C/c1ccc2c(c1)C(O)C(=O)N2Cc1ccc(OC)cc1 (stereo unspecified)

pIC50 (Jurkat [1]): 7.52
pIC50 (A549): < 5.00
pIC50 (MCF7): 7.10
pIC50 (HeLa): 5.04
pIC50 (NCI-H1299): 7.52
Structure (SMILES): COC(=O)/C=C/c1ccc2c(c1)C(=O)C(=O)N2Cc1ccc(OC)cc1
Activity (Jurkat [2]): 1.9%
Activity (Jurkat [3]): 6.5%
Activity (Jurkat [4]): 35.5%
viability at 0.03 µM (Jurkat [5]): 56.1%
Activity (Jurkat [6]): 1.8%
Activity (Jurkat [7]): 7.2%
Activity (Jurkat [8]): 28.5%
viability at 0.01 µM (Jurkat [9]): 62.5%
Activity (Jurkat [10]): 81.9%
Activity (Jurkat [11]): 32%
Activity (Jurkat [12]): Active
pIC50 [13]: < 5.00
pIC50 [14]: < 5.00
pIC50 [15]: 7.15
pIC50 [16]: 5.23
pIC50 [17]: 7.40
pIC50 (A498): 5.28
pIC50 (HUVEC): < 5.00
pIC50 (HEK293): < 5.00
Activity (Jurkat [18]): tde
Activity (Jurkat [19]): Active

pIC50 (Jurkat [1]): 5.34
Structure (SMILES): COc1ccc(CN2C(=O)C(=O)c3cc(/C=C/C(=O)N4CCOCC4)ccc32)cc1

pIC50 (Jurkat [1]): 6.51
Structure (SMILES): COc1ccc(CN2C(=O)C(=O)c3cc(/C=C/C(=O)OC(C)(C)C)ccc32)cc1

pIC50 (Jurkat [1]): 7.15
Structure (SMILES): COC(=O)/C=C/c1ccc2c(c1)C(=O)C(=O)N2Cc1ccccc1

pIC50 (Jurkat [1]): 7.52
Structure (SMILES): CCOC(=O)/C=C/c1ccc2c(c1)C(=O)C(=O)N2Cc1ccc(OC)cc1

pIC50 (Jurkat [1]): 5.04
Structure (SMILES): COC(=O)/C=C/c1ccc2c(c1)/C(=N/O)C(=O)N2Cc1ccc(OC)cc1

pIC50 (Jurkat [1]): 5.51
Structure (SMILES): COC(=O)/C=C/c1ccc2c(c1)N(Cc1ccc(OC)cc1)C(=O)C2=O

pIC50 (Jurkat [1]): 6.30
Structure (SMILES): COc1ccc(CN2C(=O)C(=O)c3cc(/C=C/C(=O)OCCO)ccc32)cc1

pIC50 (Jurkat [1]): 6.10
Structure (SMILES): COC(=O)/C=C/c1cccc2c1C(=O)C(=O)N2Cc1ccc(OC)cc1

pIC50 (Jurkat [1]): 6.40
Structure (SMILES): O=C(/C=C/c1ccc2c(c1)C(=O)C(=O)N2Cc1ccc(Br)cc1)OCCO

pIC50 (Jurkat [1]): 6.15
Structure (SMILES): CCCCOC(=O)/C=C/c1ccc2c(c1)C(=O)C(=O)N2Cc1ccc(Br)cc1

pIC50 (Jurkat [1]): 6.92
Structure (SMILES): COC(=O)/C=C/c1ccc2c(c1)C(=O)C(=O)N2Cc1cccc(Br)c1

pIC50 (Jurkat [1]): 7.15
Structure (SMILES): CCOC(=O)/C=C/c1ccc2c(c1)C(=O)C(=O)N2Cc1ccc(Br)cc1

pIC50 (Jurkat [1]): 6.66
Structure (SMILES): CCCCOC(=O)/C=C/c1ccc2c(c1)C(=O)C(=O)N2Cc1ccc(OC)cc1

pIC50 (Jurkat [1]): 7.22
Structure (SMILES): COC(=O)/C=C/c1ccc2c(c1)C(=O)C(=O)N2Cc1ccc(Br)cc1

pIC50 (Jurkat [1]): 5.79
Structure (SMILES): COc1ccc(CN2C(=O)C(=O)c3cc(/C=C/C(N)=O)ccc32)cc1

pIC50 (Jurkat [1]): < 5.00
Structure (SMILES): COc1ccc(CN2C(=O)C(=O)c3cc(/C=C/C(=O)O)ccc32)cc1

pIC50 (Jurkat [1]): 6.42
Structure (SMILES): COC(=O)/C=C/c1ccc2c(c1)C(=O)C(=O)N2Cc1ccc(F)cc1

pIC50 (Jurkat [1]): 7.30
Structure (SMILES): COC(=O)/C=C/c1ccc2c(c1)C(=O)C(=O)N2Cc1ccc(C)cc1

pIC50 (Jurkat [1]): < 5.00
Structure (SMILES): COC(=O)/C=C/c1cccc2c1N(Cc1ccc(OC)cc1)C(=O)C2=O

pIC50 (Jurkat [1]): 6.07
Structure (SMILES): COC(=O)/C=C/c1ccc2c(c1)C(=O)C(=O)N2Cc1ccc(Cl)c(Cl)c1

pIC50 (Jurkat [1]): 5.63
Structure (SMILES): NC(=O)/C=C/c1ccc2c(c1)C(=O)C(=O)N2Cc1ccc(Br)cc1

pIC50 (Jurkat [1]): 6.44
Structure (SMILES): COC(=O)/C=C/c1ccc2c(c1)C(=O)C(=O)N2Cc1ccc(C(F)(F)F)cc1

pIC50 (Jurkat [1]): 6.59
Structure (SMILES): COC(=O)/C=C/c1ccc2c(c1)C(=O)C(=O)N2Cc1ccc(Cl)cc1

pIC50 (Jurkat [1]): 5.98
Structure (SMILES): CC(C)(C)OC(=O)/C=C/c1ccc2c(c1)C(=O)C(=O)N2Cc1ccc(Br)cc1

pIC50 (Jurkat [1]): < 5.00
Structure (SMILES): COC(=O)/C=C/c1ccc2c(c1)CC(=O)N2Cc1ccc(OC)cc1

pIC50 (Jurkat [1]): 5.65
Structure (SMILES): COc1ccc(CN2C(=O)C(=O)c3cc(/C=C/C(=O)N4CCCC4)ccc32)cc1

Second part, the compound before the results:

Structure (SMILES): COC(=O)/C=C/c1ccc2c(c1)C1(OCCO1)C(=O)N2Cc1ccc(OC)cc1
pIC50 (Jurkat [1]): < 5.00

Structure (SMILES): O=C1Nc2ccc(Br)cc2C1=O
pIC50 (Jurkat [1]): < 5.00

Structure (SMILES): COC(=O)/C=C/c1ccc2c(c1)C(O)C(=O)N2Cc1ccc(Br)cc1 (stereo unspecified)
pIC50 (Jurkat [1]): 5.91

Structure (SMILES): COC(=O)/C=C/c1ccc2c(c1)C1(OCCO1)C(=O)N2Cc1ccc(Br)cc1
pIC50 (Jurkat [1]): < 5.00

Structure (SMILES): O=C1C(=O)N(Cc2ccc(Br)cc2)c2ccc(/C=C/C(=O)N3CCCC3)cc21
pIC50 (Jurkat [1]): 5.50

Structure (SMILES): O=C1Nc2ccc(Cl)cc2C1=O
pIC50 (Jurkat [1]): < 5.00

Structure (SMILES): COC(=O)/C=C/c1ccc2c(c1)CC(=O)N2Cc1ccc(Br)cc1
pIC50 (Jurkat [1]): < 5.00

Structure (SMILES): COC(=O)/C=C/c1ccc2c(c1)C(=O)C(=O)N2
pIC50 (Jurkat [1]): 6.70

Structure (SMILES): O=C1C(=O)N(Cc2ccc(Br)cc2)c2ccc(/C=C/C(=O)N3CCOCC3)cc21
pIC50 (Jurkat [1]): 5.84

Structure (SMILES): O=C1Nc2ccc(F)cc2C1=O [5-FLUOROISATIN]
pIC50 (Jurkat [1]): < 5.00

Structure (SMILES): CC[C@@]1(O)C(=O)OCc2c1cc1n(c2=O)Cc2cc3ccccc3nc2-1 [CAMPTOTHECIN]
pIC50 (Jurkat [1]): 7.07

Structure (SMILES): O=C1Nc2ccccc2C1=O [ISATIN]
pIC50 (Jurkat [1]): < 5.00

Structure (SMILES): COC(=O)/C=C/c1ccc2c(c1)/C(=N/O)C(=O)N2Cc1ccc(Br)cc1
pIC50 (Jurkat [1]): 5.23

Structure (SMILES): COC(=O)/C=C/c1ccc2c(c1)C(=O)C(=O)N2CCOc1ccccc1
pIC50 (Jurkat [1]): 6.70

Structure (SMILES): CCCCc1ccc2c(c1)C(=O)C(=O)N2
pIC50 (Jurkat [1]): < 5.00

Structure (SMILES): Cc1ccc2c(c1)C(=O)C(=O)N2
pIC50 (Jurkat [1]): < 5.00

Structure (SMILES): COC(=O)/C=C/c1ccc2c(c1)C(=O)C(=O)N2C
pIC50 (Jurkat [1]): 6.60

Structure (SMILES): COC(=O)/C=C/c1ccc2c(c1)C(=O)C(=O)N2Cc1cc(C)cc(C)c1
pIC50 (Jurkat [1]): 6.21

Structure (SMILES): CCN1C(=O)C(=O)c2cc(/C=C/C(=O)OC)ccc21
pIC50 (Jurkat [1]): 6.70

Structure (SMILES): COC(=O)/C=C/c1ccc2c(c1)C(=O)C(=O)N2Cc1ccccc1Br
pIC50 (Jurkat [1]): 6.10

Structure (SMILES): COc1ccc2c(c1)C(=O)C(=O)N2 [5-METHOXYISATIN]
pIC50 (Jurkat [1]): < 5.00
